Test results from patent publication US20120020923A1, “Method of treating viral diseases with combinations of TPO receptor agonist and anti-viral agents” (priority 2006, published 2012).

Tested on: subjects with chronic hepatitis C virus (HCV) associated thrombocytopenia
Assay: placebo controlled, double blind, dose-ranging study of Compound A before and with IFN and ribavirin
Type: in vivo, human
Details: for Median platelet count at Week 4: 4 weeks
Procedure: The safety, tolerability, efficacy and pharmacokinetics of repeat oral daily doses of 3′-{N′-[1-(3,4-Dimethylphenyl)-3-methyl-5-oxo-1,5-dihydropyrazol-4-ylidene]hydrazino}-2′-hydroxybiphenyl-3-carboxylic acid bis-(monoethanolamine);
(hereinafter Compound A) in subjects with chronic hepatitis C virus (HCV) associated thrombocytopenia, which precluded initiation of treatment with pegylated interferon (IFN) and ribavirin is assessed in this study.
HCV infected subjects with compensated cirrhosis and platelet counts between 20-70,000/ul were randomly allocated to 1 of 4 treatment groups (30, 50, 75 mg eltrombopag or placebo). During Part 1, Compound A was administered in tablet form once daily for 4 weeks. Subjects who achieved platelet counts of >70,000/ul at the end of Part 1 were eligible to enter Part 2, during which subjects initiated therapy with IFN and ribavirin and continued their randomized treatment for a maximum of 12 weeks. A follow-up visit was performed 4 weeks after last dose of study drug. The primary endpoint was defined as an increase in platelet count to 100,000/ul at Week 4.

[1] = range over the Compound A groups (30, 50, 75 mg)

Compound: CC1=NN(c2ccc(C)c(C)c2)C(=O)C1=NNc1cccc(-c2cccc(C(=O)O)c2)c1O [Compound A, 3′-{N′-[1-(3,4-Dimethylphenyl)-3-methyl-5-oxo-1,5-dihydropyrazol-4-ylidene]hydrazino}-2′-hydroxybiphenyl-3-carboxylic acid bis-(monoethanolamine)]
- Median platelet count at Week 4 (30 mg once daily oral): 136500 µL⁻¹
- Median platelet count at Week 4 (50 mg once daily oral): 213500 µL⁻¹
- Median platelet count at Week 4 (75 mg once daily oral): 209000 µL⁻¹
- platelet counts at Day 28 (all treatment groups (30, 50, 75 mg)): increased platelet counts
- subjects completing 12 weeks of antiviral therapy [1]: 36-65%
- subjects who completed 12 weeks of antiviral therapy [1]: 5-15 subjects
